Test results published in ChEMBL document CHEMBL6103545, “Discovery of GS-2278, a Potent and Selective LPAR1 Antagonist for the Treatment of Idiopathic Pulmonary Fibrosis” (J Med Chem, 2025).

Columns and labels:
[1] = Plasma protein binding in human assessed as unbound fraction incubated for 24 hrs by equilibrium dialysis based Rapidfire-QToF mass spectrometric analysis; type: ADME, cell-free
[2] = target: T1, Lysophosphatidic acid receptor 1 (Homo sapiens, UniProt Q92633); test: Antagonist activity at LPA1 receptor in serum starved human TWNT-4 cells assessed as nuclear translocation pre-incubated for 1 hr followed by LPA stimulation and measured after 30 min by MRTF-A assay; type: cell-based
T1 sequence (Q92633 whole entry): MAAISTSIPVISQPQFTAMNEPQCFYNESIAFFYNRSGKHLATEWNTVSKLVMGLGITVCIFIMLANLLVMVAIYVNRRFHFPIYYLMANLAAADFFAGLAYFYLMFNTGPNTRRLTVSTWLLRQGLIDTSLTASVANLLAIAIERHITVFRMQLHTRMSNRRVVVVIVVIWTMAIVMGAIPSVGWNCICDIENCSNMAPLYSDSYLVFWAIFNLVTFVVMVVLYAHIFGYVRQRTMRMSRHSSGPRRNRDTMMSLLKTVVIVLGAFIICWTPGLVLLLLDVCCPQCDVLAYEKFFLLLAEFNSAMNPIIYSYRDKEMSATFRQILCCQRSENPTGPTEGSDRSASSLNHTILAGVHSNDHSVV

[3] = Apparent permeability across apical to basolateral side in cMDR1 knockout MDCK-II cells incubated upto 240 mins by RF-QToF analysis; type: ADME, cell-based, Canis lupus familiaris; settings: dog
[4] = Lipophilicity, logD of compound at pH 7.4; type: physicochemical; settings: buffer
[5] = Oral bioavailability in male Sprague-Dawley rat at 5 mg/kg measured after 24 hrs by LC/MS/MS analysis; type: ADME, organism-based; settings: in vivo
[6] = Half-life in Beagle dog at 5 mg/kg, po measured after 24 hrs by LC/MS/MS analysis; type: ADME, organism-based, Canis lupus familiaris; settings: in vivo
[7] = Metabolic stability in male Sprague-Dawley rat liver microsomes assessed as intrinsic clearance at 1 uM by LC/MS/MS analysis; type: ADME, Microsome; settings: read-out: CLH (converted)
[8] = Metabolic stability in cynomolgus monkey liver microsomes assessed as intrinsic clearance at 1 uM by LC/MS/MS analysis; type: ADME, Macaca fascicularis, Microsome; settings: read-out: CLH (converted)
[9] = Metabolic stability in Beagle dog liver microsomes assessed as intrinsic clearance at 1 uM by LC/MS/MS analysis; type: ADME, Canis lupus familiaris, Microsome; settings: read-out: CLH (converted)
[10] = Volume of distribution in Beagle dog at 1 mg/kg, iv measured after 24 hrs by LC/MS/MS analysis; type: ADME, organism-based, Canis lupus familiaris; settings: in vivo
[11] = Oral bioavailability in cynomolgus monkey at 5 mg/kg measured after 24 hrs by LC/MS/MS analysis; type: ADME, organism-based, Macaca fascicularis; settings: in vivo
[12] = Volume of distribution in cynomolgus monkey at 1 mg/kg, iv measured after 24 hrs by LC/MS/MS analysis; type: ADME, organism-based, Macaca fascicularis; settings: in vivo
[13] = AUC (0 to 24 hrs) in Beagle dog at 5 mg/kg, po measured after 24 hrs by LC/MS/MS analysis; type: ADME, organism-based, Canis lupus familiaris; settings: in vivo
[14] = Half-life in male Sprague-Dawley rat at 1 mg/kg, iv measured after 24 hrs by LC/MS/MS analysis; type: ADME, organism-based; settings: in vivo
[15] = Oral bioavailability in Beagle dog at 5 mg/kg measured after 24 hrs by LC/MS/MS analysis; type: ADME, organism-based, Canis lupus familiaris; settings: in vivo
[16] = Volume of distribution in male Sprague-Dawley rat at 1 mg/kg, iv s measured after 24 hrs by LC/MS/MS analysis; type: ADME, organism-based; settings: in vivo
[17] = Half-life in cynomolgus monkey at 5 mg/kg, po measured after 24 hrs by LC/MS/MS analysis; type: ADME, organism-based, Macaca fascicularis; settings: in vivo
[18] = AUC (0 to 24 hrs) in cynomolgus monkey at 5 mg/kg, po measured after 24 hrs by LC/MS/MS analysis; type: ADME, organism-based, Macaca fascicularis; settings: in vivo
[19] = AUC (0 to 24 hrs) in male Sprague-Dawley rat at 5 mg/kg, po measured after 24 hrs by LC/MS/MS analysis; type: ADME, organism-based; settings: in vivo
[20] = Dissociation constant, pKa of compound at 100 uM by capillary electrophoresis; type: physicochemical
[21] = Drug excretion in bile-duct cannulated rat urine at 1 mg/kg, iv; type: ADME, organism-based; settings: read-out: Drug excretion
[22] = target: T1, Lysophosphatidic acid receptor 1; test: […] at LPA1 receptor in human TWNT-4 cells assessed as nuclear translocation pre-incubated for 1 hr followed by 30 min incubation by MRTF-A assay; type: functional, cell-based
[23] = target: T1, Lysophosphatidic acid receptor 1; test: […] at LPA1 receptor in human TWNT-4 cells pre-incubated for 1 hr followed by 30 mins incubation in presence of 4% human serum albumin by MRTF-A assay; type: functional, cell-based

SMILES | fraction unbound at 24 h [1] | EC50 [2] | Papp A→B at 4 h [3] | logD [4] | further results
Cc1nc(-c2nnn(C)c2NC(=O)O[C@H](C)c2cc(F)cnc2Cl)ccc1NS(C)(=O)=O | 0.13 | 83 nM | 13 ×10⁻⁶ cm/s | 1.8 | –
CC(=O)N(C)c1ccc(-c2nnn(C)c2NC(=O)O[C@H](C)c2ccccc2Cl)cc1 | – | 7530 nM | – | 2.2 | –
C[C@@H](OC(=O)Nc1c(-c2ccc(NS(C)(=O)=O)cc2)nnn1C)c1ccccc1Cl | – | 12 nM | – | 2.4 | –
Cc1nc(-c2nnn(C)c2NC(=O)O[C@@H](c2ccccc2)C(F)(F)F)ccc1NS(C)(=O)=O | 0.2 | 45 nM | 18 ×10⁻⁶ cm/s | 2.5 | –
C[C@@H](OC(=O)Nc1c(-c2ccc(NS(C)(=O)=O)cn2)nnn1C)c1cc(F)cnc1F | 0.31 | 35 nM | 3.2 ×10⁻⁶ cm/s | 1.5 | bioavailability [5]: 55%; half-life [6]: 216 min; CLint scaled at 1 µM [7]: 18.5 mL/min/kg; CLint scaled at 1 µM [8]: 7.17 mL/min/kg; CLint scaled at 1 µM [9]: 8.67 mL/min/kg; Vd [10]: 1 L/kg; bioavailability [11]: 45%; Vd [12]: 0.4 L/kg; AUC(0-t) at 24 h [13]: 25 µM·h; half-life [14]: 180 min; bioavailability [15]: 100%; Vd [16]: 1 L/kg; half-life [17]: 228 min; AUC(0-t) at 24 h [18]: 13 µM·h; AUC(0-t) at 24 h [19]: 5.4 µM·h
Cc1nc(-c2nnn(C)c2NC(=O)O[C@H](C)c2cccnc2F)ccc1NS(C)(=O)=O | 0.38 | 1370 nM | 5.6 ×10⁻⁶ cm/s | 1.4 | –
C[C@@H](OC(=O)Nc1c(-c2ccc(NS(C)(=O)=O)cn2)nnn1C)c1cc(F)cnc1Cl | 0.18 | – | 5.5 ×10⁻⁶ cm/s | 1.7 | –
C[C@@H](OC(=O)Nc1c(-c2ccc(NC(=O)c3ccnc(C(F)(F)F)c3)cn2)nnn1C)c1cc(F)cnc1F | 0.14 | – | 4.6 ×10⁻⁶ cm/s | 2.7 | –
C[C@@H](OC(=O)Nc1c(-c2ccc(NC(=O)C(F)(F)F)cc2)nnn1C)c1ccccc1Cl | – | 20 nM | – | 3.3 | –
Cc1nc(-c2nnn(C)c2NC(=O)O[C@H](C)c2ccccc2Cl)ccc1NS(C)(=O)=O | 0.13 | 11 nM | 27 ×10⁻⁶ cm/s | 2.5 | –
C[C@@H](OC(=O)Nc1c(-c2ccc(N)cc2)nnn1C)c1ccccc1Cl | – | 417 nM | – | 2.3 | –
Cc1nc(-c2nnn(C)c2NC(=O)O[C@H](C)c2cccnc2Cl)ccc1NS(C)(=O)=O | 0.17 | 109 nM | 5.9 ×10⁻⁶ cm/s | 1.5 | pKa at 100 µM [20]: 7.1; dose excreted [21]: 50%
C[C@@H](OC(=O)Nc1c(-c2ccc(NS(=O)(=O)CC#N)cc2)nnn1C)c1ccccc1Cl | – | 32 nM | – | 2.2 | –
C[C@@H](OC(=O)Nc1c(-c2ccc(N(C)S(C)(=O)=O)cc2)nnn1C)c1ccccc1Cl | – | 890 nM | – | 2.7 | –
C[C@@H](OC(=O)Nc1c(-c2ccc(NC(=O)C34CC(F)(C3)C4)cn2)nnn1C)c1cc(F)cnc1F | 0.33 | 77 nM | 11 ×10⁻⁶ cm/s | 2.3 | –
Cn1nnc(-c2ccc(NS(C)(=O)=O)cn2)c1NC(=O)O[C@H](CF)c1ccccc1 | 0.27 | 81 nM | 5 ×10⁻⁶ cm/s | 1.6 | –
C[C@@H](OC(=O)Nc1c(-c2ccc(NC(=O)C3(C#N)CC3)cn2)nnn1C)c1cc(F)cnc1F | 0.46 | 37 nM | 21 ×10⁻⁶ cm/s | 1.9 | –
C[C@@H](OC(=O)Nc1c(-c2ccccc2)nnn1C)c1ccccc1Cl | – | – | – | 3.2 | –
C[C@@H](OC(=O)Nc1c(-c2ccc(NS(C)(=O)=O)cn2)nnn1C)c1cccnc1Cl | 0.26 | 108 nM | 2.8 ×10⁻⁶ cm/s | 1.3 | –
Cc1nc(-c2nnn(C)c2NC(=O)O[C@H](CF)c2ccccc2)ccc1NS(C)(=O)=O | 0.29 | 31 nM | 17 ×10⁻⁶ cm/s | 1.9 | –
C[C@@H](OC(=O)Nc1c(-c2ccc(O)cc2)nnn1C)c1ccccc1Cl | – | 237 nM | – | 2.5 | –
C[C@@H](OC(=O)Nc1c(-c2ccc(NC(=O)C3CC(F)(F)C3)cn2)nnn1C)c1cc(F)cnc1F | 0.21 | 21 nM | 15 ×10⁻⁶ cm/s | 2.4 | –

SMILES | fraction unbound at 24 h [1] | EC50 [2] | Papp A→B at 4 h [3] | logD [4] | further results
CNS(=O)(=O)c1ccc(-c2nnn(C)c2NC(=O)O[C@H](C)c2ccccc2Cl)cc1 | – | 893 nM | – | 2.6 | –
C[C@@H](OC(=O)Nc1c(-c2ccc(NS(=O)(=O)C(C)(C)C)cc2)nnn1C)c1ccccc1Cl | – | > 10000 nM | – | 3 | –
Cc1nc(-c2nnn(C)c2NC(=O)O[C@H](C)c2cc(F)ccc2F)ccc1NS(C)(=O)=O | 0.19 | 953 nM | 20 ×10⁻⁶ cm/s | 2.4 | –
CC(=O)Nc1ccc(-c2nnn(C)c2NC(=O)O[C@H](C)c2cc(F)cnc2F)nc1 | 0.36 | 1350 nM | 7.7 ×10⁻⁶ cm/s | 1.3 | –
C[C@@H](OC(=O)Nc1c(-c2ccc(NC(=O)c3ccc(C(F)(F)F)nc3)cn2)nnn1C)c1cc(F)cnc1F | 0.15 | 25 nM | 14 ×10⁻⁶ cm/s | 2.7 | –
C[C@@H](OC(=O)Nc1c(-c2ccc(S(=O)(=O)NC3CC3)cc2)nnn1C)c1ccccc1Cl | – | – | – | 2.9 | –
C[C@@H](OC(=O)Nc1c(-c2ccc(N)cn2)nnn1C)c1cc(F)cnc1F.Cl | 0.71 | 7920 nM | 15 ×10⁻⁶ cm/s | 1.3 | –
C[C@@H](OC(=O)Nc1c(-c2ccc(NS(C)(=O)=O)cn2)nnn1C)c1ccccc1 | 0.27 | – | 13 ×10⁻⁶ cm/s | 1.9 | –
Cc1nc(-c2nnn(C)c2NC(=O)O[C@H](C)c2cccc(F)c2)ccc1NS(C)(=O)=O | 0.22 | – | 23 ×10⁻⁶ cm/s | 2.2 | –
Cc1nc(-c2nnn(C)c2NC(=O)O[C@H](C)c2cc(F)cnc2F)ccc1NS(C)(=O)=O | 0.15 | 124 nM | 8.8 ×10⁻⁶ cm/s | 1.7 | –
C[C@@H](OC(=O)Nc1c(-c2ccc(S(N)(=O)=O)cc2)nnn1C)c1ccccc1Cl | – | – | – | 2.2 | –
C[C@@H](OC(=O)Nc1c(-c2ccc(NS(C)(=O)=O)cn2)nnn1C)c1cc(F)ccc1F | 0.18 | 122 nM | 16 ×10⁻⁶ cm/s | 2.1 | –
C[C@@H](OC(=O)Nc1c(-c2ccc(NC(=O)C34CC(C#N)(C3)C4)cn2)nnn1C)c1cc(F)cnc1F | 0.31 | 51 nM | 8.3 ×10⁻⁶ cm/s | 2 | –
C[C@@H](OC(=O)Nc1c(-c2ccc(NS(C)(=O)=O)cn2)nnn1C)c1ccccc1Cl | – | 30 nM | 19 ×10⁻⁶ cm/s | 2.2 | –
C[C@@H](OC(=O)Nc1c(-c2ccc(NS(C)(=O)=O)cn2)nnn1C)c1cccnc1F | 0.3 | 186 nM | 4.4 ×10⁻⁶ cm/s | 1.1 | –
C[C@@H](OC(=O)Nc1c(-c2ccc(NC(=O)[C@@H]3CC3(F)F)cn2)nnn1C)c1cc(F)cnc1F | 0.35 | 576 nM | 12 ×10⁻⁶ cm/s | 2.2 | –
Cc1ccc(C(=O)Nc2ccc(-c3nnn(C)c3NC(=O)O[C@H](C)c3cc(F)cnc3F)nc2)cn1 | 0.32 | 109 nM | 7.2 ×10⁻⁶ cm/s | 1.7 | –
Cc1nc(-c2nnn(C)c2NC(=O)O[C@H](C)c2ccccc2)ccc1NS(C)(=O)=O | 0.2 | – | 27 ×10⁻⁶ cm/s | 2.2 | –
C[C@@H](OC(=O)Nc1c(-c2ccc(NC(=O)C3(C(F)F)CC3)cn2)nnn1C)c1cc(F)cnc1F | 0.56 | 5250 nM | 40 ×10⁻⁶ cm/s | 2.4 | –
C[C@@H](OC(=O)Nc1c(-c2ccc(NS(C)(=O)=O)cn2)nnn1C)c1cccc(F)c1 | 0.25 | 522 nM | 15 ×10⁻⁶ cm/s | 1.9 | –
CCCCCCCC/C=C\CCCCCCCC(=O)OC[C@@H](O)COP(=O)(O)O [LYSOPHOSPHATIDIC ACID] | – | – | – | – | EC50 [22]: 47.3 nM; EC50 [23]: 306 nM
